# Results published in PubChem BioAssay (NCI).
# “And” between values parts separate entries of the source, which are not always exact repeats. Equal entries are not always repeated.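 Cells were grown in 96-well plates and exposed to each compound for 48 hours at five concentrations; endpoints were interpolated linearly between bracketing concentrations, or set to the highest concentration if not reached. Here, GI50 denotes the concentration required for 50% inhibition of growth. TGI: concentration producing complete growth inhibition.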
# Legend:
# Assay in all cases: NCI tumour cell line growth inhibition, 48 h
# [1] = test system: OVCAR-8 ovarian
# [2] = test system: HOP-92 NSCLC
# [3] = test system: HCC-2998 colon
# [4] = test system: SF-295 CNS
# [5] = test system: M14 melanoma
# [6] = test system: SK-MEL-28 melanoma
# [7] = test system: EKVX NSCLC
# [8] = test system: HL-60(TB) leukemia
# [9] = test system: M19-MEL melanoma
# [10] = test system: DLD-1 colon
Compound,GI50 [1],TGI [1],GI50 [2],TGI [2],GI50 [3],TGI [3],GI50 [4],TGI [4],GI50 [5],TGI [5],GI50 [6],TGI [6],GI50 [7],TGI [7],GI50 [8],TGI [8],TGI [9] [µM],TGI [10] [µM]
COc1cc(OC)cc(-c2ccc(-c3ccc(C(=N)N)cn3)s2)c1,2.3 µM,5.3 µM,1.7 µM,3.52 µM,1.84 µM,3.48 µM,1.79 µM,3.39 µM,1.79 µM,3.47 µM,1.84 µM,3.43 µM,2.58 µM,7.17 µM,2.06 µM,4.48 µM,,
COc1ccc(Cc2nc3cc(OC)c(OC)cc3c(=O)[nH]2)cc1,13 µM,> 100 µM,21.9 µM,> 100 µM,2.98 µM,17.1 µM,5.21 µM,> 26.9 µM,4.13 µM,> 41.2 µM,11.5 µM,65.1 µM,17.3 µM,> 92.5 µM,1.78 µM,4.8 µM,,
COc1ccc(/C(C)=C(\c2ccc(Cl)cc2)c2ccc(OCCN3CCCCCC3)cc2)cc1F,5.09 µM,> 16.7 µM,2.57 µM,6.62 µM,3.81 µM,9.38 µM,2.69 µM,5.61 µM,2.74 µM,7.18 µM,2.54 µM,4.9 µM,5.54 µM,> 16.7 µM,3.25 µM,7.11 µM,,
CCCCCCCCCCCCOC1C(C(CC(=O)N2CCN(Cc3ccc4c(c3)OCO4)CC2)NS(=O)(=O)c2cc(Cl)cc(Cl)c2)OC2OC(C)(C)OC21 (configuration not stated),20.6 µM,> 100 µM,15.1 µM,> 62.8 µM,5.54 µM,> 51.4 µM,26.3 µM,> 100 µM,61.1 µM,> 100 µM,> 100 µM,> 100 µM,19.1 µM,> 100 µM,10.8 µM,78.3 µM,,
CC1=C(CNO)C2=C(C)C3(CC3)[C@@](C)(O)C(=O)C2=C1,2.28 µM,36 µM,1.12 µM,4.62 µM,1.5 µM,3.76 µM,0.982 µM,4.42 µM,1.92 µM,5.04 µM,2.37 µM,6.05 µM,2.22 µM,5.98 µM,2.77 µM,30.7 µM,,
COc1ccc(/C=C\c2cc(OC)c(OC)c(OC)c2)c(NS(=O)(=O)c2ccc(C(C)(C)C)cc2)c1O,0.44 µM,> 100 µM,0.189 µM,5.92 µM,1.5 µM,15.3 µM,1.37 µM,15 µM,0.191 µM,13.5 µM,4.91 µM,22.2 µM,0.706 µM,26.3 µM,0.039 µM,2.34 µM,,
CNCc1cccc2c1OCCOCCOCCC(C)S(=O)(=O)c1ccc(cc1)-c1cnc(N)c(n1)C(=O)N2 (configuration not stated),1.78 µM,7.9 µM,11.5 µM,25 µM,4.53 µM,17.2 µM,2.84 µM,9.07 µM,1.27 µM,3.03 µM,1.77 µM,3.37 µM,4.46 µM,18.6 µM,1.81 µM,3.83 µM,,
C#Cc1cccc(NC(=O)C2CCCN(C(=O)CCl)C2)c1 (configuration not stated),61.8 µM,> 82.5 µM,> 82.5 µM,> 82.5 µM,> 82.5 µM,> 82.5 µM,> 82.5 µM,> 82.5 µM,29.9 µM,> 82.5 µM,> 82.5 µM,> 82.5 µM,> 82.5 µM,> 82.5 µM,> 82.5 µM,> 82.5 µM,,
COC(=O)C(=O)C(C(=O)C(=O)Nc1ccc(C)c(C)c1)c1nc2ccc([N+](=O)[O-])cc2[nH]c1=O (configuration not stated),,> 100 µM,,> 100 µM,,> 100 µM,,> 100 µM,,> 100 µM,,> 100 µM,,> 100 µM,,> 100 µM,,
NC(N)=N/N=C(/c1ccccc1)c1ccccc1F,4.03 µM,25.8 µM,18.3 µM,> 81.5 µM,1.39 µM,4.73 µM,2.43 µM,14.3 µM,1.7 µM,9.59 µM,4.69 µM,21.4 µM,6.89 µM,53 µM,2.96 µM,> 100 µM,,
COc1cc(N(CCC#N)CCC#N)ccc1/C(N=Nc1ccc(C(=O)O)cc1)=N/NC(=O)c1cc(Br)ccc1O,50.6 µg/mL,> 150 µg/mL,> 150 µg/mL,> 150 µg/mL,38.3 µg/mL,81.7 µg/mL,96.4 µg/mL,> 150 µg/mL,72 µg/mL,> 150 µg/mL,> 150 µg/mL,> 150 µg/mL,137 µg/mL,> 150 µg/mL,55.4 µg/mL,> 150 µg/mL,,
COc1cc2cc3c(c(O)c2c(O)c1-c1c(OC)cc2cc4c(c(O)c2c1O)C(=O)O[C@H](C)C4)C(=O)O[C@H](C)C3,33.5 µM,> 100 µM,31.3 µM,74.3 µM,33 µM,> 100 µM,24.5 µM,78.1 µM,25.7 µM,57 µM,33 µM,99.1 µM,16.2 µM,63.9 µM,95.9 µM,> 100 µM,,
Fc1ccc(-c2nn3c(COc4ccc(Cl)cc4)nnc3s2)cc1Oc1ccccc1,21.2 µM,66.3 µM,10.1 µM,21.7 µM,30.6 µM,92.8 µM,15.2 µM,33.5 µM,> 49.5 µM,> 79.3 µM,37 µM,> 100 µM,30.8 µM,> 74.2 µM,> 100 µM,> 100 µM,,
OCCCCC#Cc1ccccc1C#Cc1ccc(C(F)(F)F)cc1,17.4 µM,33.2 µM,18 µM,34.9 µM,17.1 µM,32 µM,19.1 µM,34.5 µM,17.1 µM,38.3 µM,8.4 µM,21.7 µM,18.4 µM,35.9 µM,17.7 µM,38.8 µM,,
Cc1nc2c(Br)cc(Br)cc2c(=O)n1-c1ccccc1NC1OCC(O)C(O)C1O (configuration not stated),30.6 µM and 14.5 µM,> 100 µM and 50.7 µM,,82.1 µM and > 100 µM,,> 100 µM,43.1 µM and 14 µM,> 100 µM and 65.3 µM,,46.7 µM and > 100 µM,,> 100 µM,,> 100 µM,18.6 µM and 7.03 µM,43.4 µM and 15.7 µM,,
N#CCC1(n2cc(-c3ncnc4[nH]ccc34)cn2)CN(C2CCN(C(=O)c3ccnc(C(F)(F)F)c3F)CC2)C1,> 100 µM,> 100 µM,20.7 µM,> 100 µM,> 100 µM,> 100 µM,53.9 µM,> 100 µM,> 100 µM,> 100 µM,> 100 µM,> 100 µM,> 100 µM,> 100 µM,> 100 µM,> 100 µM,,
COc1ccc(OCC(O)CN2CCN(c3ccc(Cl)cc3)CC2)cc1 (configuration not stated),88.5 µM,> 100 µM,3.99 µM,> 100 µM,> 100 µM,> 100 µM,> 100 µM,> 100 µM,> 100 µM,> 100 µM,> 100 µM,> 100 µM,9.82 µM,> 100 µM,> 100 µM,> 100 µM,,
c1ccc2c3c([nH]c2c1)C1C2CCCCN2C(c2ccncc2)N1CC3 (configuration not stated),,> 100 µM,,,,,,> 100 µM,,> 100 µM,,> 100 µM,,> 100 µM,,52.5 µM,> 100,
CCN1CCN(c2nc(NNC(=O)c3ccccc3)nc(N3CCN(C(c4ccccc4)c4ccccc4)CC3)n2)CC1,3.58 µM,19.5 µM,1.39 µM,3.7 µM,1.95 µM,4.08 µM,4.58 µM,16.3 µM,1.88 µM,3.56 µM,1.8 µM,3.49 µM,10.3 µM,30 µM,1.76 µM,3.99 µM,,
O=C(C(=O)c1cc(Br)ccc1O)c1cc(Br)ccc1O,7.46 µM,40.5 µM,1.48 µM,5.58 µM,4.75 µM,18.6 µM,1.98 µM,6.27 µM,4.96 µM,20.1 µM,8 µM,> 100 µM,2.03 µM,7.52 µM,2.2 µM,6.16 µM,,
COc1ccc(/C(CC2OC(=O)c3ccccc32)=N\NC(N)=O)cc1 (configuration not stated),,> 100 µM,,> 100 µM,,> 100 µM,,> 100 µM,,> 100 µM,,> 100 µM,,> 100 µM,,> 100 µM,,
CC1OC(OC2C(O[C@H]3CC[C@@]4(C)C(=CC[C@H]5[C@@H]6C[C@@H]7O[C@]8(CC[C@@H](C)CO8)[C@@H](C)[C@@H]7[C@@]6(C)CC[C@@H]54)C3)OC(CO)C(OC3OC(CO)C(O)C3O)C2O)C(O)C(O)C1O (some centres not stated),0.423 µM,1.16 µM and 1.5 µM,1.22 µM,1.98 µM and 2.46 µM,,1.19 µM,0.448 µM,1.53 µM and 1.62 µM,0.205 µM,1.43 µM and 0.362 µM,0.21 µM,1.37 µM and 0.522 µM,1.05 µM,1.77 µM and 2.23 µM,0.506 µM,1.77 µM and 1.89 µM,,
CCN(CC)CCOc1ccc2c(C)c(C(=O)OC)oc2c1C(=O)/C=C/c1ccc(OC)cc1,20.2 µM,40.1 µM,0.551 µM,2.77 µM,1.86 µM,3.72 µM,6.76 µM,23.7 µM,25.4 µM,> 48.7 µM,2.89 µM,11.2 µM,19.7 µM,36.5 µM,1.94 µM,6.11 µM,,
NC(N)=N/N=C/c1c(-c2ccncc2)nc2sc(Cl)cn12,15.2 µM,36.4 µM,1.43 µM,4.63 µM,3.29 µM,9.36 µM,13.5 µM,33.7 µM,6.54 µM,14.7 µM,14.3 µM,38.8 µM,21 µM,39.2 µM,19 µM,45 µM,,
CC1=C2[C@@H](CC1)[C@]1(C)O[C@@](C3CC3)(C[C@H]1OC(=O)CO)[C@H]2OC(=O)/C=C/c1ccccc1,0.0834 µM,15.4 µM,13.4 µM,26.7 µM,16.9 µM,33.2 µM,16.1 µM,30.1 µM,16.4 µM,32.3 µM,18.6 µM,36.3 µM,11.5 µM,25.1 µM,15.6 µM,42.6 µM,,
C=C(Cn1c2ccccc2c(=O)c2ccccc21)c1ccc(C(=O)Nc2ccccc2N)cc1,> 100 µM,> 100 µM,5.87 µM,> 100 µM,3.67 µM,> 61.2 µM,> 81.5 µM,> 100 µM,12.2 µM,> 100 µM,> 100 µM,> 100 µM,> 21.5 µM,> 100 µM,0.662 µM,> 26.9 µM,,
CN(C)c1ccc(C2CC(C)(O)Oc3cc4c(cc32)OCO4)cc1 (configuration not stated),,94.7 µM,,> 100 µM,,95.1 µM,,> 100 µM,,> 100 µM,,> 100 µM,,> 100 µM,,> 100 µM,,
CCCCCCCCCCCCCCC(C)CCC(=O)O (configuration not stated),,> 100 µM,,> 100 µM,,,,> 100 µM,,,,> 100 µM,,> 100 µM,,,> 100,> 100
O=c1nc2[nH]c3c(-c4n[nH]c(=O)[nH]c4=O)cccc3c2n[nH]1,> 100 µM,> 100 µM,78.1 µM,> 100 µM,> 100 µM,> 100 µM,> 100 µM,> 100 µM,> 100 µM,> 100 µM,> 100 µM,> 100 µM,> 100 µM,> 100 µM,> 100 µM,> 100 µM,,
O=C(/C=C(\[O-])c1ccccc1)CCCCCCC(=O)/C=C(\[O-])c1ccccc1.O=C(/C=C(\[O-])c1ccccc1)CCCCCCC(=O)/C=C(\[O-])c1ccccc1.O=C(/C=C(\[O-])c1ccccc1)CCCCCCC(=O)/C=C(\[O-])c1ccccc1.[Nd+3].[Nd+3],> 50 µM,> 50 µM,43.8 µM,> 50 µM,> 50 µM,> 50 µM,40.2 µM,> 50 µM,> 50 µM,> 50 µM,> 50 µM,> 50 µM,> 50 µM,> 50 µM,3.05 µM,> 50 µM,,
